≈ marks a conversion by molar mass, not a printed value. One block for each compound: values may come before it.
What was measured:
Assay in all cases: ≥ marks a high value that may be exact or a test limit, other limits are often not marked, values filed in µg/mL are converted to µM
[1] = tested on: Mycobacterium tuberculosis WXY
[2] = tested on: Mycobacterium tuberculosis CAS3
[3] = tested on: Mycobacterium tuberculosis H37Rv
[4] = tested on: Pseudomonas aeruginosa Z61
[5] = tested on: Escherichia coli CGSC 4908
[6] = tested on: Pseudomonas aeruginosa K799
[7] = tested on: Escherichia coli UB1005
[8] = tested on: Salmonella enterica subsp. enterica serovar Typhimurium ATCC 14028s
[9] = tested on: Aeromonas salmonicida 99-1
[10] = tested on: Salmonella enterica serovar typhimurium MS7953s
[11] = tested on: Escherichia coli DC2
[12] = tested on: Candida albicans C627
[13] = tested on: Aeromonas salmonicida 97-4
[14] = tested on: Staphylococcus epidermidis C621
[15] = tested on: Staphylococcus aureus C623
[16] = tested on: Escherichia coli K88
[17] = tested on: Lacticaseibacillus rhamnosus 1.9021
[18] = tested on: Staphylococcus epidermidis ATCC 12228
[19] = tested on: Streptococcus agalactiae BNCC 185941
[20] = tested on: Staphylococcus aureus ATCC 29213
[21] = tested on: Lacticaseibacillus rhamnosus 1.0936
[22] = tested on: Salmonella enterica subsp. enterica serovar Choleraesuis CVCC 503
[23] = tested on: Salmonella enterica subsp. enterica serovar Typhimurium ATCC 14028
[24] = tested on: Escherichia coli O157:H7 CICC 21530
[25] = tested on: Pseudomonas aeruginosa PAO1
[26] = tested on: Lacticaseibacillus rhamnosus 8014
[27] = tested on: Pseudomonas aeruginosa ATCC 27853
[28] = tested on: Lacticaseibacillus rhamnosus 1.0911
[29] = tested on: Staphylococcus aureus ATCC 43300
[30] = tested on: Salmonella enterica subsp. enterica serovar Pullorum C79-13
[31] = tested on: Staphylococcus aureus ATCC 12600
[32] = tested on: Escherichia coli KpC+001812446
[33] = tested on: Pseudomonas aeruginosa PA14
[34] = tested on: Escherichia coli ATCC 25922
[35] = tested on: Enterobacter cloacae
[36] = tested on: Klebsiella pneumoniae KpC+001825971
[37] = tested on: Acinetobacter baumannii
[38] = tested on: Escherichia coli ATCC 8739
[39] = tested on: Klebsiella pneumoniae ATCC 13883
[40] = tested on: Staphylococcus aureus
[41] = tested on: Staphylococcus aureus ATCC 25923

MIC [1]: ≥ 40.7 µM
MIC [2]: ≥ 40.7 µM
MIC [3]: ≥ 40.7 µM
Structure (SMILES): CC(C)C[C@H](NC(=O)[C@H](C)NC(=O)[C@H](C)NC(=O)[C@@H](NC(=O)[C@H](C)N)C(C)C)C(=O)N[C@@H](CC(C)C)C(=O)N[C@@H](CCCN=C(N)N)C(=O)N[C@@H](Cc1c[nH]c2ccccc12)C(=O)N[C@@H](Cc1c[nH]c2ccccc12)C(=O)N[C@@H](CO)C(=O)N[C@@H](CCCN=C(N)N)C(=O)N[C@@H](Cc1c[nH]c2ccccc12)C(=O)N[C@@H](Cc1c[nH]c2ccccc12)C(=O)N[C@@H](C)C(=O)N[C@@H](C)C(=O)O [AVAALLRWWSRWWAA]

MIC [4]: 28.3 µM (≈ 63.9 µg/mL)
MIC [5]: 28.3 µM (≈ 63.9 µg/mL)
MIC [6]: 28.3 µM (≈ 63.9 µg/mL)
MIC [7]: 28.3 µM (≈ 63.9 µg/mL)
MIC [8]: 28.3 µM (≈ 63.9 µg/mL)
MIC [9]: 28.3 µM (≈ 63.9 µg/mL)
MIC [10]: 14.1 µM (≈ 32 µg/mL)
MIC [11]: 28.3 µM (≈ 63.9 µg/mL)
MIC [12]: 28.3 µM (≈ 63.9 µg/mL)
MIC [13]: ≥ 56.6 µM
MIC [14]: 28.3 µM (≈ 63.9 µg/mL)
MIC [15]: 28.3 µM (≈ 63.9 µg/mL)
Structure (SMILES): CC(=O)[C@H](C)NC(=O)[C@H](Cc1ccccc1)NC(=O)[C@H](Cc1cnc[nH]1)NC(=O)[C@H](CCCNC(=N)N)NC(=O)[C@H](CCC(N)=O)NC(=O)[C@H](CO)NC(=O)[C@H](CC(C)C)NC(=O)[C@H](CCCNC(=N)N)NC(=O)[C@H](CCC(=O)O)NC(=O)CNC(=O)[C@H](CCCCN)NC(=O)[C@@H](NC(=O)[C@H](Cc1ccccc1)NC(=O)[C@H](Cc1c[nH]c2ccccc12)NC(=O)[C@H](CCCCN)NC(=O)[C@H](CCCCN)NC(=O)[C@H](Cc1c[nH]c2ccccc12)NC(=O)CN)[C@@H](C)O [GWKKWFTKGERLSQRHFA]

MIC [16]: 8 µM (≈ 10.3 µg/mL)
MIC [17]: ≥ 128 µM
MIC [18]: > 128 µM
MIC [19]: ≥ 128 µM
MIC [20]: > 128 µM
MIC [21]: ≥ 128 µM
MIC [23]: 64 µM (≈ 82.1 µg/mL)
MIC [24]: ≥ 64 µM
MIC [25]: 32 µM (≈ 41 µg/mL)
MIC [26]: ≥ 128 µM
MIC [27]: 32 µM (≈ 41 µg/mL)
MIC [28]: ≥ 128 µM
MIC [29]: > 128 µM
MIC [30]: 8 µM (≈ 10.3 µg/mL)
Structure (SMILES): CC(C)C[C@H](NC(=O)[C@H](CCCCN)NC(=O)CNC(=O)[C@H](CCCCN)NC(=O)[C@H](CC(C)C)NC(=O)[C@H](Cc1c[nH]c2ccccc12)NC(=O)[C@H](CC(C)C)NC(=O)[C@H](CCCCN)NC(=O)CNC(=O)[C@H](CCCCN)NC(=O)[C@@H](N)CC(C)C)C(N)=O [LKGKLWLKGKL]
MIC [22]: ≥ 128 µM

MIC [31]: 4 µM (≈ 8.73 µg/mL)
MIC [32]: 2 µM (≈ 4.37 µg/mL)
MIC [33]: 4 µM (≈ 8.73 µg/mL)
MIC [25]: 4 µM (≈ 8.73 µg/mL)
MIC [34]: 4 µM (≈ 8.73 µg/mL)
MIC [35]: ≥ 32 µM
MIC [36]: ≥ 32 µM
MIC [37]: 4 µM (≈ 8.73 µg/mL)
MIC [38]: 14.7 µM (≈ 32 µg/mL)
MIC [39]: 8 µM (≈ 17.5 µg/mL)
MIC [40]: 16 µM (≈ 34.9 µg/mL)
MIC [41]: 16 µM (≈ 34.9 µg/mL)
Structure (SMILES): CC[C@H](C)[C@H](NC(=O)[C@H](CCCCN)NC(=O)[C@H](CCCCN)NC(=O)CNC(=O)[C@H](CC(C)C)NC(=O)[C@H](CCCN=C(N)N)NC(=O)[C@H](CCCCN)NC(=O)[C@H](CC(C)C)NC(=O)[C@H](CC(C)C)NC(=O)[C@H](CCCCN)NC(=O)[C@H](CCSC)NC(=O)[C@@H]1CCCN1)C(=O)N[C@@H](CCCN=C(N)N)C(=O)N[C@@H](CC(C)C)C(=O)N[C@@H](C)C(=O)N[C@@H](C)C(=O)N[C@@H](C)C(=O)N[C@@H](Cc1ccccc1)C(=O)N[C@@H](CCCCN)C(=O)O [PMKLLKRLGKKIRLAAAFK]
